Assay results published in patent US20240390295A1, “METHODS FOR TREATING DEPRESSION” (JANSSEN PHARMACEUTICA NV, priority 2020, published 2024).
Where “and” joins values, the source holds several entries; their conditions need not be identical. Identical values can stand only once.

System: adult patients (aged 18-64 years) with TRD
Assay: Clinician-reported adverse events: incidence and recurrence by Week 1/Week 4 frequency, pooled studies 1 and 2 (ESK + OAD)
Type: in vivo, human
Text: Data were pooled from adult patients (aged 18-64 years) with TRD. Patients had recurrent or single-episode (>2 years) MDD (DSM-5), a Clinician-Rated Inventory of Depressive Symptomatology score of >3 and a total Montgomery-Åsberg Depression Rating Scale (MADRS) score of >2. At screening, depressive symptoms had been non-responsive to adequate trials of ≥1 and ≤5 commercially available OAD in the current depressive episode. Non response was further confirmed by a prospective trial of a different OAD lasting ≥4 weeks and during the screening phase.
In brief, study 1 was a double-blind, placebo-controlled relapse prevention trial comparing the efficacy of ESK versus placebo nasal spray, both in conjunction with a Food and Drug Administration (FDA)-approved OAD, in delaying relapse of depressive symptoms in patients with TRD who were either in stable remission or stable response after four months' treatment with ESK in conjunction with a FDA-approved OAD. Study 2 was an open-label, multicenter study that assessed the long-term safety and efficacy of ESK in conjunction with an FDA-approved OAD in patients with TRD.
The analysis was limited to the two doses of ESK (56 mg and 84 mg) approved for use by the FDA for patients with TRD. Patients received ESK (56 or 84 mg) in conjunction with an OAD twice weekly during the induction phase (Weeks 1-4); once weekly during Weeks 5-8 of the optimization phase: either once weekly or every other week during the remainder of the 12-week optimization phase and the maintenance phase (individualized according to the severity of depressive symptoms [MADRS total score≤/>12] and tolerability).
Patients were monitored for >90 minutes after ESK administration at each treatment session, after which time they could leave the clinical site at the clinician's discretion. AEs were monitored and reported, and safety assessments, including clinical laboratory tests and physical examinations, were conducted throughout the study. Clinician-reported AEs were categorized as mild, moderate, or severe based on clinical judgement (Table 1).
This analysis included any treatment sessions in which patients received ESK (either open-label or blinded). The occurrence and severity of AEs were assessed within the following timeframes: Month 1 (Week 1 and Weeks 2-4), Month 2 (Weeks 5-8), Months 3-6 and Months 6-12. Severity of clinician-reported AEs were scored as 0 (no AE), 1 (mild), 2 (moderate), and 3 (severe). To examine AEs in individual patients over time, only patients who received at least one ESK dose in the following period were included in the analyses of each respective period. Thus, patient data were retained in (i) Week 1 if the patient received ≥1 ESK dose in Weeks 2-4, (ii) Weeks 2-4 if the patient received ≥1 ESK dose in Weeks 5-8, (iii) Weeks 5-8 if the patient received ≥1 ESK dose in Months 3-6, and (iv) Months 3-6 if the patient received ≥1 ESK dose in Months 6-12.
The five most commonly reported treatment-emergent events occurring with ESK plus OAD therapy (dissociation, dizziness, nausea, sedation, and vertigo) were evaluated, each of which has an incidence ≥5% and at least a 2-fold greater incidence than with placebo plus an OAD. 14 Increases in BP were also examined.
Week 1 and Week 4 were set a priori as index weeks because they are the beginning and end of the induction period. Frequencies and maximum-reported severities of AEs reported during these index weeks served as stratifying variables by which to examine recurrence and severities of AE recurrences in future timeframes.

[1] = Weeks 2-4, overall rate for timeframe
[2] = Weeks 5-8, overall rate for timeframe
[3] = human, in vivo, other: nasal spray, 1 week

Structure (SMILES): CN[C@]1(c2ccccc2Cl)CCCCC1=O [esketamine, (S)-2-(2-chlorophenyl)-2-(methylamino)cyclohexanone]
- Clinician-reported dissociation (Weeks 2-4, AE once in Week 1): 48.2%
- Clinician-reported increased blood pressure (Weeks 2-4, AE once in Week 1): 56.5%
- Clinician-reported sedation (Weeks 2-4, AE once in Week 1): 36.8%
- Dizziness (Weeks 2-4, AE once in Week 1): 51.9%
- Nausea (Weeks 2-4, AE once in Week 1): 28.6%
- Vertigo (Weeks 2-4, AE once in Week 1): 67.4%
- Clinician-reported dissociation (Weeks 2-4, AE twice in Week 1): 86.5%
- Clinician-reported increased blood pressure (Weeks 2-4, AE twice in Week 1): 77.8%
- Clinician-reported sedation (Weeks 2-4, AE twice in Week 1): 70.6%
- Dizziness (Weeks 2-4, AE twice in Week 1): 86.4%
- Nausea (Weeks 2-4, AE twice in Week 1): 61.9%
- Vertigo (Weeks 2-4, AE twice in Week 1): 90.3%
- Clinician-reported dissociation (Weeks 2-4, No AE in Week 1): 5.6% and 5.7%
- Clinician-reported increased blood pressure (Weeks 2-4, No AE in Week 1): 2.4%
- Clinician-reported sedation (Weeks 2-4, No AE in Week 1): 2.1%
- Dizziness (Weeks 2-4, No AE in Week 1): 6.3%
- Nausea (Weeks 2-4, No AE in Week 1): 5.3%
- Vertigo (Weeks 2-4, No AE in Week 1): 5.5%
- Anxiety (Weeks 2-4, None in Week 1): 1.3%
- Feeling Drunk (Weeks 2-4, None in Week 1): 0.4%
- Hypoesthesia (Weeks 2-4, None in Week 1): 3.7%
- Lethargy (Weeks 2-4, None in Week 1): 1.0%
- Vomiting (Weeks 2-4, None in Week 1): 2.4%
- Anxiety (Weeks 2-4, Once in Week 1): 11.8%
- Feeling Drunk (Weeks 2-4, Once in Week 1): 30.8%
- Hypoesthesia (Weeks 2-4, Once in Week 1): 54.3%
- Lethargy (Weeks 2-4, Once in Week 1): 71.4%
- Vomiting (Weeks 2-4, Once in Week 1): 31.0%
- Anxiety (Weeks 2-4, Overall): 1.7%
- Feeling Drunk (Weeks 2-4, Overall): 1.9%
- Hypoesthesia (Weeks 2-4, Overall): 7.2%
- Lethargy (Weeks 2-4, Overall): 1.5%
- Vomiting (Weeks 2-4, Overall): 3.3%
- Anxiety (Weeks 2-4, Twice in Week 1): 100%
- Feeling Drunk (Weeks 2-4, Twice in Week 1): 90.9%
- Hypoesthesia (Weeks 2-4, Twice in Week 1): 76.2%
- Lethargy (Weeks 2-4, Twice in Week 1): 0%
- Vomiting (Weeks 2-4, Twice in Week 1): 0%
- Clinician-reported dissociation [1]: 16.1%
- Clinician-reported increased blood pressure [1]: 5.2%
- Clinician-reported sedation [1]: 4.1%
- Dizziness [1]: 19.2%
- Nausea [1]: 9.4%
- Vertigo [1]: 15.0%
- Clinician-reported dissociation (Weeks 5-8, AE once in Week 1): 29.8%
- Clinician-reported increased blood pressure (Weeks 5-8, AE once in Week 1): 40.9%
- Clinician-reported sedation (Weeks 5-8, AE once in Week 1): 22.2%
- Dizziness (Weeks 5-8, AE once in Week 1): 30.8%
- Nausea (Weeks 5-8, AE once in Week 1): 16.1%
- Vertigo (Weeks 5-8, AE once in Week 1): 45.2%
- Clinician-reported dissociation (Weeks 5-8, AE twice in Week 1): 60.0%
- Clinician-reported increased blood pressure (Weeks 5-8, AE twice in Week 1): 55.6%
- Clinician-reported sedation (Weeks 5-8, AE twice in Week 1): 52.9%
- Dizziness (Weeks 5-8, AE twice in Week 1): 62.5%
- Nausea (Weeks 5-8, AE twice in Week 1): 30.0%
- Vertigo (Weeks 5-8, AE twice in Week 1): 67.6%
- Clinician-reported dissociation (Weeks 5-8, No AE in Week 1): 6.1%
- Clinician-reported increased blood pressure (Weeks 5-8, No AE in Week 1): 1.9%
- Clinician-reported sedation (Weeks 5-8, No AE in Week 1): 1.2%
- Dizziness (Weeks 5-8, No AE in Week 1): 3.7%
- Nausea (Weeks 5-8, No AE in Week 1): 1.7%
- Vertigo (Weeks 5-8, No AE in Week 1): 3.0%
- Anxiety (Weeks 5-8, None in Week 1): 0.8%
- Feeling Drunk (Weeks 5-8, None in Week 1): 0.1%
- Hypoesthesia (Weeks 5-8, None in Week 1): 1.6%
- Lethargy (Weeks 5-8, None in Week 1): 1.1%
- Vomiting (Weeks 5-8, None in Week 1): 1.5%
- Anxiety (Weeks 5-8, Once in Week 1): 5.9%
- Feeling Drunk (Weeks 5-8, Once in Week 1): 16.7%
- Hypoesthesia (Weeks 5-8, Once in Week 1): 20.7%
- Lethargy (Weeks 5-8, Once in Week 1): 40.0%
- Vomiting (Weeks 5-8, Once in Week 1): 21.1%
- Anxiety (Weeks 5-8, Overall): 1.0%
- Feeling Drunk (Weeks 5-8, Overall): 1.6%
- Hypoesthesia (Weeks 5-8, Overall): 3.4%
- Lethargy (Weeks 5-8, Overall): 1.2%
- Vomiting (Weeks 5-8, Overall): 1.8%
- Anxiety (Weeks 5-8, Twice in Week 1): 50.0%
- Feeling Drunk (Weeks 5-8, Twice in Week 1): 90.9%
- Hypoesthesia (Weeks 5-8, Twice in Week 1): 58.3%
- Lethargy (Weeks 5-8, Twice in Week 1): 0%
- Vomiting (Weeks 5-8, Twice in Week 1): 0%
- Clinician-reported dissociation [2]: 12.6%
- Clinician-reported increased blood pressure [2]: 3.9%
- Clinician-reported sedation [2]: 2.6%
- Dizziness [2]: 12.5%
- Nausea [2]: 4.0%
- Vertigo [2]: 9.9%
- increased blood pressure reported (all subsequent postdose monitoring periods, no increased blood pressure in week 1): < 4%
- dissociation as an AE into months 3-6 (dissociation twice in week 1): > 50%
- dizziness at 3-6 months (dizziness not reported in week 1 (exception)): 11.6%
- patients who did not have increased blood pressure during week 1 [3]: 95.7%
- patients who did not report dissociation during week 1 [3]: 83.2%
- patients who did not report nausea during week 1 [3]: 86.0%
- impact of dose (56 or 84 mg modal dose) on AE recurrence (most pronounced with dissociation and dizziness): small dose effect
- dissociation occurred (remainder of induction period, no dissociation in week 1): < 10%
- nausea reported (subsequent postdose monitoring periods, no nausea in week 1): < 6%
